Assay results: publication PMC9259591, “Irigenin, a novel lead from Iris confusa for management of Helicobacter pylori infection with selective COX-2 and HpIMPDH inhibitory potential” (Scientific Reports, 2022)

Assays:
human recombinant COX-2 = target: T1, human recombinant COX-2 (Homo sapiens, UniProt P35354); test: COX-2 inhibitory activity, colourimetric COX inhibitor screening assay kit; assay type: biochemical
T1 construct: purchased
T1 sequence (P35354 18-604): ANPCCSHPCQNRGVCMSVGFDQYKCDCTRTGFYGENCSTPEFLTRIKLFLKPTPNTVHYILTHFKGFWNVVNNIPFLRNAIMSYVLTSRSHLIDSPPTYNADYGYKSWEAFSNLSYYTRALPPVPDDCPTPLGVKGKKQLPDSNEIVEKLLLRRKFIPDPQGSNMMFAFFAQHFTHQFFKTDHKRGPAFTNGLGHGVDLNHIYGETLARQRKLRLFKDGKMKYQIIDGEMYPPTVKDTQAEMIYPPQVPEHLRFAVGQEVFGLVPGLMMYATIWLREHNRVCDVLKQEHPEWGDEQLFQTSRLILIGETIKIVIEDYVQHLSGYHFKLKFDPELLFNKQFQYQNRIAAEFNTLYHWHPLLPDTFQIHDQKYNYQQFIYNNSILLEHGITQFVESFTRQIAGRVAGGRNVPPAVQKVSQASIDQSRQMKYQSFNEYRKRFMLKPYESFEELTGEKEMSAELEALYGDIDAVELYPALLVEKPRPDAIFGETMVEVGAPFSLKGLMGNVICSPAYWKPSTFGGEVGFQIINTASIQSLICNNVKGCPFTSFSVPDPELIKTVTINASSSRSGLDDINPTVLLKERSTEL
Method: The inhibitory COX activity was assayed colourimetrically by examining the inhibition of the ovine COX-1 and human recombinant COX-2 enzymes as described by George et al.[38], using a COX inhibitor screening assay kit. The detailed procedures were described in the supplementary file.
The inhibitory COX activity was assayed colourimetrically by examining the inhibition of the ovine COX-1 and human recombinant COX-2 enzymes as described by George et al. ^2, using a COX inhibitory screening assay kit. This assay determines the COX peroxidase activity by monitoring the appearance of N,N,N',N'-tetramethyl-p-phenylenediamine (TMPD). Assay buffer (150 μL 0.1 M Tris–HCl pH 8.0), 10 μL heme and 10μL enzyme (COX-1 or COX-2) were added in each well. Ten μL of each tested sample concentration was added to each well and incubated for 15 minutes at 37°C. After incubation, 20 μL of TMPD was added to each well. For initiating the reaction, 10 μL 10 mM arachidonic acid was added and the plates were further incubated for another 2 minutes at 37°C. For terminating the reaction, 50 μL 1 N HCl and saturated stannous chloride were added.
Reaction mixture containing assay buffer and heme acted as the blank and a mixture with either COX-1 or COX-2 assay buffer and heme acted as the 100% initial activity (IA). […] The absorbances of oxidized TMPD (blue colour) were read in ELISA plate reader at 590 nm. The % inhibition was calculated using the following formula:
COX % Inhibition= [(100%IA−Inhibitor)/ 100% IA x 100]. Where, IA: 100% initial activity.
The concentration at which the tested sample produces 50% inhibition of COX-1 and/or COX-2 (IC50) was determined. The selectivity index (SI) was calculated also as IC50 (COX-1)/ (COX-2).

[1] = target: T2, H. pylori inosine-5′-monophosphate dehydrogenase (HpIMPDH) (Helicobacter pylori, UniProt P56088); test: In vitro HpIMPDH inhibition assay (NADH fluorescence); assay type: biochemical; set-up: HpIMPDH inhibitory activity: unit not given here
T2 sequence (P56088 1-481): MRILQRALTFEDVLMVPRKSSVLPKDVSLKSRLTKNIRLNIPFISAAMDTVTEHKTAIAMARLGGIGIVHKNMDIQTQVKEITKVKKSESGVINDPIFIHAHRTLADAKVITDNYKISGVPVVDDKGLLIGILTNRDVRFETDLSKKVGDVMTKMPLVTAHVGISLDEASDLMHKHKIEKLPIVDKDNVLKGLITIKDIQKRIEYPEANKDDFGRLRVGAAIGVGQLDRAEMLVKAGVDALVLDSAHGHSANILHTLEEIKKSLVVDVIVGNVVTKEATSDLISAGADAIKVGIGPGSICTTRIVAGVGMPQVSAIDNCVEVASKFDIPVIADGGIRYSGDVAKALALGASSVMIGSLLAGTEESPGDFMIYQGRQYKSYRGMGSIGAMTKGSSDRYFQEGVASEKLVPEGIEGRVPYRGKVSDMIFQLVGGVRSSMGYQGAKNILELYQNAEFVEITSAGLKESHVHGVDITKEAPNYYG
Method: The assay was carried out according to Galal[40] and was described in detail in the supplementary file.
Thus, irigenin was selected to test its HpIMPDH inhibitory activity by monitoring NADH production at concentration range of 10–0.078 µM compared to clarithromycin as standard drug. Also, to examine irigenin selectivity toward the bacterial IMPDH, human hIMPDH2 inhibition potential was assayed.
The assay was carried out in a final volume of two hundred μL in black 96-well plate (Tarsons Products Pvt. Ltd., Kolkata, India) with a reaction buffer composed of one hundred mM KCl, fifty mM Tris–HCl (pH 8.6), and one mM dithiothreitol (DTT). One hundred nM H. pylori inosine-5′-monophosphate dehydrogenase (HpIMPDH) in the presence/absence of the tested compound were used. The assay mixture was then incubated at 37 °C for 10 min, and the reaction was initiated by the adding 250 μM of inosine 5ʹ‐monophosphate (IMP) and 300 μM of nicotinamide adenine dinucleotide (NAD^+) substrate buffer. The assay was allowed to proceed for 45 min at 37 °C.
The formed NADH was measured by recording the fluorescence (excitation 340 nm, emission 440 nm) using PerkinElmer EnVision Multilabel Reader (Waltham, MA) at an interval of one min. DMSO and clarithromycin were used as vehicle control and positive control, respectively. The concentration of the tested sample leading to 50% HpIMPDH inhibition (IC50) was estimated.

## COc1cc(-c2coc3cc(O)c(OC)c(O)c3c2=O)cc(O)c1OC [Irigenin (P3), 3′,5,7-trihydroxy-4′,5′,6 trimethoxyisoflavone]
Human recombinant COX-2; human recombinant COX-2
  IC50: 10.8 ± 0.86 µM
Human recombinant COX-2; selectivity index calculated as IC50 (COX-1)/(COX-2)
  SI (COX-1/COX-2): 3.26
[1]
  IC50: 2.07 ± 1.9 µM
[1]; sample conc. 0.078 (range 10–0.078 µM)
  HpIMPDH inhibitory activity: 0.00
[1]; sample conc. 0.156 (range 10–0.078 µM)
  HpIMPDH inhibitory activity: 0.00
[1]; sample conc. 0.313 (range 10–0.078 µM)
  HpIMPDH inhibitory activity: 6.14 ± 1.90
[1]; sample conc. 0.625 (range 10–0.078 µM)
  HpIMPDH inhibitory activity: 10.25 ± 2.80
[1]; sample conc. 1.25 (range 10–0.078 µM)
  HpIMPDH inhibitory activity: 24.19 ± 1.70
[1]; sample conc. 2.5 (range 10–0.078 µM)
  HpIMPDH inhibitory activity: 59.31 ± 1.40
[1]; sample conc. 5 (range 10–0.078 µM)
  HpIMPDH inhibitory activity: 71.08 ± 1.30
[1]; sample conc. 10 (range 10–0.078 µM)
  HpIMPDH inhibitory activity: 83.25 ± 0.58
